Assay results as given in patent US20250066737A1, “METHOD FOR ESTABLISHING LUNG CANCER CELL MODEL HAVING VASCULAR TUBES, PLATFORM FOR LUNG CANCER MEDICINE SCREENING AND METHOD FOR USING THEREOF” (National Cheng Kung University Hospital, priority 2023, published 2025).

Columns and labels:
[1] = Cell viability (MTT assay), HCC827; type: cell-based; conditions: human, HCC827 cells; HCC827, 62.5 nM
Description: (§1) Cell viability was determined using an MTT assay.

H1299-EGFRmt cell model [2] = assay: Cell viability, H1299-EGFRmt cell model; type: cell-based
Description: as §1

H1299 cell model [3] = assay: 2D-VM networks inhibition assay via high-content imaging, H1299; type: cell-based; conditions: H1299, compared with H1299-EGFRmt cell model
Description: (§2) Cells to be tested were plated in 96-well plates (manufactured by Greiner) and allowed to adhere overnight under standard culture conditions. Following attachment, the cells to be tested were exposed to various concentrations of anti-VM compound foslinanib (ABEx BIO-Research Center). The treatment's efficacy, specifically its ability to inhibit VM vasculature, was monitored time-dependent. The assessment of 2D-VM network disruption was conducted using the ImageXpressR Micro Confocal High-Content Imaging System (Molecular Devices LLC). This advanced imaging technology facilitates high-resolution visualization of cell morphology and tubular networks. Analysis of the imaging data was performed using MetaXpress software, allowing for quantitative measurement of 2D-VM network inhibition. This methodological approach provides a robust framework for evaluating the potential of anti-VM compounds.

H1299-EGFRmt cell model [4] = assay: 3D-VM vasculature disruption, H1299-EGFRmt cell model; type: cell-based
Description: (§3) The assessment of in vitro vasculogenic mimicry (VM) capabilities of cancer cells was conducted utilizing the Matrigel tube formation assay. Chamber slides (TruLive3D Dishes, Burker) were prepared by applying a 100 μl layer of growth factor-reduced Matrigel (Corning) and subsequently allowing for gel solidification over a 30-minute period at 37° C. Following solidification, a cell suspension prepared in culture media at a concentration of 1.25×10^5 cells per 150 μl was evenly distributed over the gel surface. This preparation was then incubated for an additional 30 minutes at 37° C. within a CO2 incubator. […]
(§4) The quantification of tube or lumen formation of 3D-VM vasculature was conducted utilizing an analytical approach on at least eight distinct areas of interest (AOIs), among which three AOIs were specified as representative sections of images. […] First, the AOI was identified and quantified. Following this, the mean ROI was calculated by aggregating the ROIs for all eight AOIs (area 1+ area 2+ . . . area 8) and dividing this sum by eight, thereby deriving an average area that reflects the typical dimensions of the regions analyzed in each individual lung cancer cell model. […]
(§5) The entire quantification process was facilitated by employing the Angiogenesis Analyzer for ImageJ.

[5] = tested on: various tumor xenograft models; conditions: cited from earlier work
[6] = tested on: H1650 lung cancer cell model; assay: 3D-VM vasculature disruption, H1650 lung cancer cell model (real-time LSFM, lumen quantification); type: cell-based
Description: The assessment of in vitro vasculogenic mimicry (VM) capabilities of cancer cells was conducted utilizing the Matrigel tube formation assay. Chamber slides (TruLive3D Dishes, Burker) were prepared by applying a 100 μl layer of growth factor-reduced Matrigel (Corning) and subsequently allowing for gel solidification over a 30-minute period at 37° C. Following solidification, a cell suspension prepared in culture media at a concentration of 1.25×10^5 cells per 150 μl was evenly distributed over the gel surface. This preparation was then incubated for an additional 30 minutes at 37° C. within a CO2 incubator. After this initial incubation period, an overlay of 1× Matrigel mixed with culture medium was applied directly to the cells, so as to obtain a pre-cell model (10), and followed by further incubation at 37° C. for 5 to 24 hours so that a lung cancer cell model (100) was obtained for subsequent 3D-VM observation.
The quantification of tube or lumen formation of 3D-VM vasculature was conducted utilizing an analytical approach on at least eight distinct areas of interest (AOIs), among which three AOIs were specified as representative sections of images. The region of interest (ROI) indicates a delineated patent tube or hollow lumen within each tested cell. First, the AOI was identified and quantified. Following this, the mean ROI was calculated by aggregating the ROIs for all eight AOIs (area 1+ area 2+ . . . area 8) and dividing this sum by eight, thereby deriving an average area that reflects the typical dimensions of the regions analyzed in each individual lung cancer cell model. Finally, the standard average was ascertained by dividing the mean ROI by the mean total tube average. This ratio provides a standardized metric, enabling the effective comparison of anti-3D-VM vasculature efficiency across varying experimental setups or among different cell lines; the formula is as follows: […]
as §5

H1299-EGFRwt cell model [7] = assay: 2D-VM networks inhibition assay via high-content imaging, H1299-EGFRwt; type: cell-based; conditions: high concentration (beyond 31.25 nM)
Description: as §2

H1650 cells = assay: Cell viability (MTT assay), H1650; type: cell-based; conditions: H1650 lung cancer cell model, various foslinanib concentrations
Description: as §1

H1299-EGFRmt cell model [8] = assay: 2D-VM networks inhibition assay via high-content imaging, H1299-EGFRmt; type: cell-based; conditions: any concentration beyond 31.25 nM
Description: as §2

H1299-EGFRwt cell model [9] = assay: 3D-VM vasculature disruption, H1299-EGFRwt cell model; type: cell-based; conditions: foslinanib 62.5 nM
Description: as §3, with “Following solidification, a cell suspension prepared in culture media at a concentration of 1.25×10^5 cells per 150 μl was evenly distributed over the gel surface.” left out
as §4, §5

H1299 cell model [10] = assay: Cell viability, H1299 cell model; type: cell-based; conditions: H1299, high concentration (beyond 250 nM)
Description: as §1

[11] = tested on: HCC827 lung cancer cell model; assay: 3D-VM vasculature disruption, HCC827 lung cancer cell model (real-time LSFM, lumen quantification); type: cell-based; conditions: HCC827, 500 nM, 24-hour incubation
Description: as §3, §4, §5

LAMC2 = assay: Western blot, LAMC2 in H1299, H1299-EGFRwt and H1299-EGFRmt cell models; type: cell-based; conditions: across the examined cell lines
Description: (§6) Cells were seeded at a density of 2×10^6 cells in a 6 cm culture dish for protein sample preparation. […] After centrifugation, the cell lysate samples were boiled with 6X sample buffer for 10 minutes. The cell lysate protein samples were separated by SDS-PAGE and transferred to polyvinylidene difluoride (PVDF) membranes (Millipore). The membranes were then blocked with 5% skim milk (HIMEDIA) dissolved in Tris-buffered saline Tween (TBST) buffer for 1 hour, followed by three 10-minute washes with TBST. […] Subsequently, the membranes were incubated with the appropriate secondary antibodies for 1 hour at room temperature. Protein expressions were visualized using Western Lightning Plus ECL (PerkinElmer), detected by the iBright FL1000 imaging system, and analyzed using ImageJ software.

H1299-EGFRwt cell model [12] = conditions: osimertinib
Description: Cell viability was determined using an MTT assay. Cells were plated at a density of 4×10^3 cells/well within 96-well plates. These cells were then exposed to various concentrations of anti-vasculogenic mimicry (anti-VM) compounds across different time points: 0, 24, 48, and 72 hours. Following the treatment period, the MTT reagent (sourced from Sigma) was added to each well, and the cells were incubated at 37° C. for 2 hours. Subsequently, the plates were centrifuged at 1500 rpm for 10 minutes to facilitate the removal of the supernatant. The resultant formazan crystals were dissolved using dimethyl sulfoxide (DMSO), and the absorbance of the solution, indicative of cell viability, was measured at a wavelength of 492 nm using an ELISA plate reader.

phosphorylated EGFR = conditions: Western blot, H1299, H1299-EGFRwt, H1299-EGFRmt cell models
Description: as §6

[13] = tested on: H1299-EGFRwt and H1299-EGFRmt cell models; assay: 3D-VM vasculature under single use of osimertinib (cell model not given); type: cell-based
Description: as §3, with “Following solidification, a cell suspension prepared in culture media at a concentration of 1.25×10^5 cells per 150 μl was evenly distributed over the gel surface.” left out
as §4, §5

COc1ccc2[nH]c(-c3cccc(F)c3)cc(=O)c2c1OP(=O)(O)O [foslinanib]
viability at 0.0625 µM [1]: 70% | cell viability (H1299-EGFRmt cell model [2]; H1299-EGFRmt, 31.25 nM (range 7.8125 nM to 500 nM)): significant decrease | 2D total network area (H1299 cell model [3]): less effective inhibition | 2D total network length (H1299 cell model [3]): less effective inhibition | disruption of 3D-VM vasculature (quantitative analysis) (H1299-EGFRmt cell model [4]): significant | anti-tumor efficacy [5]: robust anti-tumor efficacy | disruption of VM lumens ([6]; H1650, 62.5 nM): disruption of VM lumens | inhibition of 3D-VM vasculature ([6]; H1650, 250 nM and 500 nM): significant inhibition | lumen area ([6]; H1650, 250 nM and 500 nM): significantly reduced | inhibitory effect on the formation of a 2D-VM network (H1299-EGFRwt cell model [7]): rather insignificant | cell toxicity against H1650 cells (H1650 cells): no significant cell toxicity | 2D total network area (H1299-EGFRmt cell model [8]): decreasing trend | 2D total network length (H1299-EGFRmt cell model [8]): decreasing trend | effect on 3D-VM vasculature (H1299-EGFRwt cell model [9]): disruptive effect | cell viability (H1299 cell model [10]): suppressed | lumen area [11]: significant reduction | LAMC2 protein levels (LAMC2): significant decrease

C=CC(=O)Nc1cc(Nc2nccc(-c3cn(C)c4ccccc34)n2)c(OC)cc1N(C)CCN(C)C [osimertinib]
cytotoxic effects (H1299-EGFRmt cell model [2]; H1299mt cell model, osimertinib): cytotoxic effects | cytotoxic effects (H1299-EGFRwt cell model [12]): cytotoxic effects | levels of phosphorylated EGFR (phosphorylated EGFR): markedly reduced | 3D-VM vasculature (quantitative analysis) ([13]; after osimertinib treatment): significantly disrupted | formation of 3D-VM vasculature (3D imaging) ([13]; osimertinib): did not impact
